Laboratory results published in patent US6825185B2, “Substituted aryl compounds as novel cyclooxygenase-2 selective inhibitors, compositions and methods of use” (NitroMed, Inc., priority 2000, dated 2004).

Key:
[1] = target: T1, COX-1 (Homo sapiens, UniProt P23219); experiment: COX-1 enzyme activity in human whole blood (A23187 stimulated, thromboxane B2 EIA); type: cell-based; design: Human blood (≈50 mL) from male or female donors who had not received any aspirin or NSAIDs for 14 days; endogenous in cells; host or cells: human whole blood from donors; conditions: test compound at 100 μM
Description: (§1) The assay for COX-1 and COX-2 enzyme activity, in the human whole blood was performed as described in Brideau et al., Inflamm Res., 45: 68-74 (1996)). Human blood (≈50 mL) from male or female donors who had not received any aspirin or NSAIDs for 14 days was collected at two local area blood donor centers and placed in polypropylene syringes containing sodium heparin (20 units per mL blood, final concentration). The blood was transported to the laboratory on ice packs and used within 1.5 hours of collection. Upon receipt in the laboratory, the blood was allowed to come to room temperature for 15 minutes prior to distribution in 1 mL aliquots per well of 24 well tissue culture plates. The plates were then placed on a gently rotating platform shaker in a 5% CO2 incubator at 37° C. for 15 minutes. Test compounds were dissolved in DMSO, at 1000 fold the final desired concentration, and further diluted, as indicated, in DMSO. One μL of each dilution of the test compound was added per well, in duplicate wells; wells not receiving test compound (e.g., basal, background or control wells) received 1 μL DMSO.
(§2) To induce COX-2, lipopolysaccharide (LPS) from E. coli (LPS, serotype 026:B6 or serotype 0127:B8, Sigma Chemical Co., St. Louis, Mo., Catalogue No. L3755 or L3129, respectively) was added at 10 μg/mL (2 μL of 5 mg/mL LPS in DMSO) to appropriate wells 15 minutes after the addition of the test compound. (Basal or background wells not incubated with LPS received 2 μL of DMSO.) For the stimulation of COX-1, the calcium ionophore, A23187 (free acid from Sigma Chemical Co., St. Louis, Mo., Catalogue No. C7522) was added at 25 μM (1 μL of 25 mM stock in DMSO) to separate wells 4.5 hours after the addition of the test compound. (Again, basal, background or control wells not stimulated with A23187 received 1 μL of DMSO.) At 5 hours after the addition of the test compound, all incubations were terminated by placement on ice and the addition of 2 mM EGTA (100 μL of 20 mM EGTA, tetrasodium, in PBS (phosphate buffered saline) without Ca^++ and Mg^++, pH 7.2)). The resulting solutions, were transferred by polyethylene transfer pipettes to 15 mL polypropylene centrifuge tubes and centrifuged at 1200 g for 10 minutes at 4° C. One hundred μL of plasma was removed from each blood sample and added to 1 mL of methanol in new 15 mL polypropylene centrifuge tubes, vortexed, and stored overnight at −20° C. The next day, the samples were centrifuged at 2000 g for 10 minutes at 4° C. and the supernatants transferred to glass tubes and evaporated to dryness. The samples were assayed for thromboxane B2 using EIA kits supplied by Cayman Chemical Co. (Ann Arbor, Mich., Catalogue No. 519031) in duplicate wells after reconstitution with EIA Buffer and appropriate dilution (2000 fold for COX-1 and 500 fold for Cox-2 samples).

[2] = target: T1, COX-1; experiment: Human COX-1 enzyme activity (COX Inhibitor Screening Assay, prostaglandin EIA); type: biochemical; design: purchased Cayman Chemical; conditions: test compound at 100 μM
Description: The human COX-1 and COX-2 enzyme activities and the measurement of the prostaglandin products synthesized were performed using the COX Inhibitor Screening Assay (Cayman Chemical, Ann Arbor, Mich.), which also contained the Prostaglandin Screening EIA Kit, used for prostaglandin quantification). The test compounds were dissolved at 50 times the highest final reaction concentration in DMSO or any other suitable solvent as stock solutions. These stock solutions were then diluted in the same solvent. Eight glass test tubes (13×100 mm) were placed in a 25° C. water bath. To each test tube was added 950 μL of reaction buffer (0.1 M Tris-HCl, pH 8.0, containing 5 mM EDTA, and 2 mM phenol), 10 μL of 100 µM heme solution, and 10 μL (5 units) of either human COX-1 or COX-2 enzyme and the resulting mixture was incubated for 2 minutes. Twenty μL of the solvent was added to one tube (100% initial activity or solvent control) and 20 μL of each dilution of the test compound was added to one tube each. Each tube was vortexed immediately after the addition. The enzyme was incubated with the inhibitor for 20 minutes at 25° C. The enzymatic reaction was then initiated by the addition of 10 μL of freshly prepared 10 mM arachidonic acid (neutralized with KOH), vortexed and then incubated for 2 minutes (or, in some cases as indicated, 30 seconds) at 37° C. The reaction was terminated by the addition of 50 μL of 1 M HCl, vortexed and placed at room temperature. One hundred μL of a saturated stannous chloride solution (50 mg/mL of 0.1 M HCl) was added and the reaction mixture was allowed to stand at room temperature for at least 5 minutes.
The prostaglandins (PG) produced in the reactions were assayed, after a 2,000-fold dilution, using the Prostaglandin Screening EIA Kit (Cayman Chemical, Ann Arbor, Mich.). The assay contains an antibody with broad specificity for all the prostaglandin families (PGF, PGE, PGD, and thromboxane B-type) synthesized in the COX-1/COX-2 reactions. The synthesized prostaglandin competes with a PG-tagged acetylcholine esterase tracer for binding to the PG antibody. Binding of synthesized PG lowers the colorimetric development of the Ellman's Reagent (computed as %B/B0). The actual amount of synthesized PG was interpolated from a standard curve using known amounts of supplied prostaglandin E2 (PGE2) (PGE2 concentration vs. %B/B0). The data generated were the mean±standard deviation of triplicate wells in the EIA for a single reaction at a given inhibitor concentration. A plot of % of control (i.e., the solvent control without inhibitor) vs. test compound inhibitor concentration for both isoenzymes was used to determine the IC50 's for COX-1 and COX-2 for that test compound, when IC50's were calculated. The % inhibition for COX-1 and COX-2 enzyme activity by the test compounds at the indicated concentrations are given in Table 1.

[3] = target: T2, COX-2 (Homo sapiens, UniProt P35354); experiment: COX-2 enzyme activity in human whole blood (LPS induced, thromboxane B2 EIA); type: cell-based; design: Human blood (≈50 mL) from male or female donors who had not received any aspirin or NSAIDs for 14 days; endogenous in cells; host or cells: human whole blood from donors, LPS-induced; conditions: test compound at 10 μM
T2 sequence (P35354 18-604): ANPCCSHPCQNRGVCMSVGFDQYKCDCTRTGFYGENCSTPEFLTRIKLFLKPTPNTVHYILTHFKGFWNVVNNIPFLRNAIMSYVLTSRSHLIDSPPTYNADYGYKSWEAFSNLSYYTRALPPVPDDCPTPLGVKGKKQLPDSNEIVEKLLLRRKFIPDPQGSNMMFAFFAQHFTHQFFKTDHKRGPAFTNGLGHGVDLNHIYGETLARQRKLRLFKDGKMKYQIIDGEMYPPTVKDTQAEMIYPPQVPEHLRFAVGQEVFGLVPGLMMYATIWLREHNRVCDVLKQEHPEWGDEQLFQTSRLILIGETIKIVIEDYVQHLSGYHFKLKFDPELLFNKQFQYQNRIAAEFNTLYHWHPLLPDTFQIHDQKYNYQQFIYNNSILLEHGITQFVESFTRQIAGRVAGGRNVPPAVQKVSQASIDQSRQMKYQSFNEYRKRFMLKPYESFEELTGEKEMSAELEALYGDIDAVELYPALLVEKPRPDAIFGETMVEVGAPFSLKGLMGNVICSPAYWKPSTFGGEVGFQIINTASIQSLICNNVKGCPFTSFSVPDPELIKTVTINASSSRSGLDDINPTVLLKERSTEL
Description: as §1, with “Human” for “The assay for COX-1 and COX-2 enzyme activity, in the human whole blood was performed as described in Brideau et al., Inflamm Res., 45: 68-74 (1996)). Human”
as §2, with “(Basal or background wells not incubated with LPS received 2 μL of DMSO.) For the stimulation of COX-1, the calcium ionophore, A23187 (free acid from Sigma Chemical Co., St. Louis, Mo., Catalogue No. C7522) was added at 25 μM (1 μL of 25 mM stock in DMSO) to separate wells 4.5 hours after the addition of the test compound.” left out, “dryness.” for “dryness. The samples were assayed for thromboxane B2 using EIA kits supplied by Cayman Chemical Co. (Ann Arbor, Mich., Catalogue No. 519031) in duplicate wells after reconstitution with EIA Buffer and appropriate dilution (2000 fold for COX-1 and 500 fold for Cox-2 samples).”

T1 sequence (P23219 24-599): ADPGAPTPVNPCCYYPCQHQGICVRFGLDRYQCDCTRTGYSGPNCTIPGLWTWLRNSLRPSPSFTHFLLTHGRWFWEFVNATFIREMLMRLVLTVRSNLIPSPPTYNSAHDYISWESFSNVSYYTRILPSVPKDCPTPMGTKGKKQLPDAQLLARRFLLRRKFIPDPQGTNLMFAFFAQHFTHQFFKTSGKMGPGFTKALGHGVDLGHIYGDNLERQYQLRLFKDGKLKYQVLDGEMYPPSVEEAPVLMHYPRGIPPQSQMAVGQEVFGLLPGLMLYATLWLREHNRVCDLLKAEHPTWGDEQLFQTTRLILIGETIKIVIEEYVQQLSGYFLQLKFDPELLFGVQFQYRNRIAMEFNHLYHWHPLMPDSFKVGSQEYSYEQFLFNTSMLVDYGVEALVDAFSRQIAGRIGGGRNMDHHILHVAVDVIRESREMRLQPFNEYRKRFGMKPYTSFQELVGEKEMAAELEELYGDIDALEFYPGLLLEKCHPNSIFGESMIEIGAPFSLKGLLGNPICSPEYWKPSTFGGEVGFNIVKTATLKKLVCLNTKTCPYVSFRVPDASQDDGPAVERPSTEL

Row | Compound | COX-1 Inhibition (% at 100 μM) [1] [%] | COX-1 Inhibition (% at 100 μM) [2] [%] | COX-2 Inhibition (% at 10 μM) [3] [%] | inhibition at 100 µM [1] [%] | inhibition at 10 µM [3] [%]
1 | CS(=O)(=O)c1ccc(-c2cc3c(cc2C=C2CCCCC2)OCO3)cc1 [Example 1d, 1-(6-(Cyclohexylidenemethyl)(2-H-benzo(3,4-d) 1,3-dioxolen-5-yl))-4-(methylsulfonyl)benzene] | 50 | 5 | – | – | –
2 | COc1cc(Cc2cc(F)cc(F)c2)c(-c2ccc(S(C)(=O)=O)cc2)cc1OC [Example 17d, 5-(1-(3′,5′-Difluorophenyl)methyl)-1,2-dimethoxy-4-(4-methylsulfonylphenyl)benzene] | 25 | – | 20 | – | –
3 | CS(=O)(=O)c1ccc(-c2cc(O)c(O)cc2Cc2cc(F)cc(F)c2)cc1 [Example 17e, 5-(1-(3′,5′-Difluorophenyl)methyl)-1,2-dihydroxy-4-(4-methylsulfonylphenyl)benzene] | 35 | – | 25 | – | –
4 | CCOC(=O)C1(C(=O)OCC)Oc2cc(Cc3cc(F)cc(F)c3)c(-c3ccc(S(C)(=O)=O)cc3)cc2O1 [Example 17f, 1,2-(Bis(ethoxycarbonyl))methylenedioxy-5-(1-(3′,5′-difluorophenyl)methyl)--4-(4-methylsulfonylphenyl)benzene] | 10 | – | 25 | – | –
5 | CS(=O)(=O)c1ccc(-c2cc(O)c(O)cc2C(=O)c2cc(F)cc(F)c2)cc1 [Example 17h, 4-(1-(3′,5′-Difluorophenyl)-1-oxomethyl)-1,2-hydroxy-5-(4-methylsulfonylphenyl)benzene] | 65 | – | 55 | – | –
6 | CS(=O)(=O)c1ccc(-c2cc3c(cc2Cc2cc(F)cc(F)c2)OC(C(=O)NCCO)CO3)cc1 (centres unmarked) [Example 18b, (7-((3,5-Difluorophenyl)methyl)-6-(4-(methylsulfonyl)phenyl)(2H, 3H-benzo(e)1,4-dioxin-2-yl))-N-(2-hydroxyethyl)carboxamido] | 50 | – | 25 | – | –
7 | CS(=O)(=O)c1ccc(-c2cc3c(cc2Cc2cc(F)cc(F)c2)OCC(C(=O)NCCO)O3)cc1 (centres unmarked) [Example 18c, (6-((3,5-Difluorophenyl)methyl)-7-(4-(methylsulfonyl)phenyl)(2H, 3H-benzo(e)1,4-dioxin-2-yl))-N-(2-hydroxyethyl)carboxamide] | – | – | – | 90 | 40
8 | CS(=O)(=O)c1ccc(-c2cc3c(cc2Cc2cc(F)cc(F)c2)OC(C(=O)NCCO[N+](=O)[O-])CO3)cc1 (centres unmarked) [Example 18d, (7-((3,5-Difluorophenyl)methyl)-6-(4-(methylsulfonyl)phenyl)(2H, 3H-benzo(e)1,4-dioxin-2-yl))-N-(2-(nitrooxy)ethyl)carboxamido] | 60 | – | 40 | – | –
9 | O=[N+]([O-])OCc1ccc(-c2cc3c(cc2Cc2cc(F)cc(F)c2)OCO3)cc1 [Example 23d, ((4-(6-((3,5-Difluorophenyl)methyl)(2H-benzo(3,4-d)1,3-dioxolan-5-yl))phenyl)methyl)nitrooxy] | 65 | – | 30 | – | –
10 | Ethyl 7-((3,5-difluorophenyl)methyl)-6-(4-(methylsulfonyl)phenyl)-2H, 3H-benzo(e)1,4-dioxin-2-carboxylate and ethyl 6-((3, 5-difluorophenyl)methyl)-7-(4-(methylsulfonyl)phenyl)-2H, 3H-benzo(e)1,4-dioxin-2-carboxylate [Example 18a] | 90 | – | 65 | – | –
